From patent US20250179027A1, “CYCLOALKYL OR HETEROCYCLYL SUBSTITUTED HETEROARYL COMPOUND, AND COMPOSITION AND USE THEREOF” (Shenzhen TargetRx, Inc., priority 2022, published 2025)

Tests used:
[1] = target: T1, phosphorylated BTK Y223 in NIH/3T3 BTK WT cells (Homo sapiens, UniProt Q06187); assay: Phosphor-BTK(Y223) assay, NIH/3T3 BTK WT cells; type: cell-based; settings: phosphorylated BTK Y223, NIH/3T3 BTK WT cells; read-out: NIH/3T3 BTK-WT pBTK IC50
T1 construct: expressed in transfected cells; host or cells: NIH/3T3 (mouse fibroblasts) engineered to express BTK WT
Method: (§1) The purpose of this assay is to simply, quickly and directly detect the endogenous level of BTK in cells. The specific assay steps are as follows: Day 1: NIH/3T3 BTK WT cells (7.5 k/well) and NIH/3T3 BTK C481S cells (10 k/well) were plated in 96-well plates, respectively, and cultured overnight at 37° C. and 5% CO2.
(§2) • 1. A 3-fold final concentration gradient dilution of the compound was prepared, and 50 μL was added to 100 μL of cell culture; 0.5% DMSO was used as a positive control for cell growth. • 2. The plate was incubated at 37° C., 5% CO2 for 0.5 h. • 3. Na3VO4 with a final concentration of 1 mM was added, and incubated at 37° C. and 5% CO2 for 2 hours. • 4. During the incubation, the following reagents were prepared: 1× added lysis buffer: 3 vol ddH2O+1 vol 4× lysis buffer+100× blocking reagent. p-BTK (Y223) cryptate-antibody and p-BTK (Y223) d2-antibody working solutions: 1 volume of each cryopreserved antibody (stored at −20° C.) was added to 19 times volumes of assay buffer (stored at 4° C.). • 5. After the incubation, the medium was removed and 50 μL of 1× added lysis buffer was added; The mixture was centrifuged at 500 rpm for 30 min at room temperature. • 6. The lysate was mixed well and 16 μL was transferred to a 384-well plate; 1× added lysis buffer was used as a blank control. • 7. 4 μL of pre-mixed working solutions of the two antibodies (cryptate Ab:d2 Ab=1:1) were added and the plate was sealed. • 8. The plate was incubated overnight at room temperature.
(§3) Biotek cytation3.0 microplate reader was used to read the plate at 665 nm and 620 nm, and the ratio of 665/620 nm per well was calculated.
(§4) IC50 was calculated using GraphPad Prism 7.0 software.
(§5) The following nonlinear fitting formula was used to obtain the phosphorylated BTK Y223 IC50 (half phosphorylation inhibitory concentration) of the compounds:
(§6) [formula] • X: Compound concentration log value • Y: Inhibition rate (% inhibition)
(§7) The formula for calculating cell phosphorylation inhibition rate (% inhibition rate) was: […]

[2] = target: T2, phosphorylated BTK Y223 in NIH/3T3 BTK C481S cells (Homo sapiens, UniProt Q06187, C481S); assay: Phosphor-BTK(Y223) assay, NIH/3T3 BTK C481S cells; type: cell-based; settings: phosphorylated BTK Y223, NIH/3T3 BTK C481S cells; read-out: NIH/3T3 BTK-C481S pBTK IC50
T2 construct: expressed in transfected cells; host or cells: NIH/3T3 (mouse fibroblasts) engineered to express BTK C481S
Method: as §1, §2, §3, §4, §5, §6, §7

T2 sequence (Q06187 whole entry C481S): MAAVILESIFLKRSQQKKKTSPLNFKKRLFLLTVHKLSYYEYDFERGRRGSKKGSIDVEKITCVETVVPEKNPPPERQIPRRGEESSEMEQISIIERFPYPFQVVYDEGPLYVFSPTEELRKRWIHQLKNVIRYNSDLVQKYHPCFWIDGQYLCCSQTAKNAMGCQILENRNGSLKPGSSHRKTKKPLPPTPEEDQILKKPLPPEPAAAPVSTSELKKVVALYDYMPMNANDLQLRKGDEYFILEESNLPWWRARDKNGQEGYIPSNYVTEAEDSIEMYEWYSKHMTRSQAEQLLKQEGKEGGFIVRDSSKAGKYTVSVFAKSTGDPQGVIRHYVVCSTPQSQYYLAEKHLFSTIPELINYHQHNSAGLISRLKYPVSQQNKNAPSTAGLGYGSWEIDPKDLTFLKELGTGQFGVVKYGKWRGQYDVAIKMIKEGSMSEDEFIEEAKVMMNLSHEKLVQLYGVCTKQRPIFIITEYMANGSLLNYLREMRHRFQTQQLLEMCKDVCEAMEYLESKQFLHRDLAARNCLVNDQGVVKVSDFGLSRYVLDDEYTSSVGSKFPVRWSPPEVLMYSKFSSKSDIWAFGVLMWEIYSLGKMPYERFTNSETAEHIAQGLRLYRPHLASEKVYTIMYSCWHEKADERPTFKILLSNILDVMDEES
T1 sequence (Q06187 whole entry): as the sequence (Q06187 whole entry C481S) above, with S481C counted along it

With `COc1ccc(F)cc1C(=O)NCc1ccc(-c2cc(C3CCC(CO)OC3)n3ncnc(N)c23)cc1` (single isomer, unassigned) [Example 61, N-(4-(4-amino-7-(6-(hydroxymethyl)tetrahydro-2H-pyran-3-yl)pyrrolo[2,1-f][1,2,4]triazin-5-yl)benzyl)-5-fluoro-2-methoxybenzamide] the IC50 [1] was ≤ 25 nM and the IC50 [2] was 25 to 50 nM.
In the case of `COc1ccc(F)cc1C(=O)NCc1ccc(-c2nn(C3CCC(CO)OC3)c3ncnc(N)c23)cc1` (centres unmarked) [Example 15, N-(4-(4-amino-1-(6-(hydroxymethyl)tetrahydro-2H-pyran-3-yl)-1H-pyrazolo[3,4-d]pyrimidin-3-yl)benzyl)-5-fluoro-2-methoxybenzamide], the IC50 [1] is reported as ≤ 25 nM and the IC50 [2] is reported as 50 to 100 nM.
`COc1ccc(F)cc1C(=O)NCc1ccc(-c2cc(C3CCC(CO)OC3)n3ncnc(N)c23)cc1` (centres unmarked) [Example 58, N-(4-(4-amino-7-(6-(hydroxymethyl)tetrahydro-2H-pyran-3-yl)pyrrolo[2,1-f][1,2,4]triazin-5-yl)benzyl)-5-fluoro-2-methoxybenzamide] was tested, and the IC50 [1] was ≤ 25 nM and the IC50 [2] was 25 to 50 nM.
With `COc1ccc(F)cc1C(=O)NCc1ccc(-c2nn([C@H]3CC[C@@H](O)CC3)c3c(=O)[nH]nc(N)c23)cc1` [Example 39, cis-N-(4-(4-amino-1-((1S,4S)-4-hydroxycyclohexanyl)-7-oxo-6,7-dihydro-1H-pyrazolo[3,4-d]pyridazin-3-yl)benzyl)-5-fluoro-2-methoxybenzamide] the IC50 [1] was 50 to 100 nM and the IC50 [2] was 100 to 500 nM.
For `COc1ccc(F)cc1C(=O)NCc1ccc(-c2nn(C3CCCC(C)(O)C3)c3ncnc(N)c23)cc1` (single isomer, unassigned) [Example 23, N-(4-(4-amino-1-(3-hydroxy-3-methylcyclohexanyl)-1H-pyrazolo[3,4-d]pyrimidin-3-yl)benzyl)-5-fluoro-2-methoxybenzamide], the IC50 [1] was 25 to 50 nM and the IC50 [2] was 25 to 50 nM.
`COc1ccc(F)cc1C(=O)NCc1ccc(-n2cc(C3CCC(CO)OC3)c3ncnc(N)c32)cc1` (single isomer, unassigned) [Example 51, N-(4-(4-amino-7-(6-(hydroxymethyl)tetrahydro-2H-pyran-3-yl)-5H-pyrrolo[3,2-d]pyrimidin-5-yl)benzyl)-5-fluoro-2-methoxybenzamide] showed an IC50 [1] of 25 to 50 nM and an IC50 [2] of 50 to 100 nM.
With `COc1ccc(F)cc1C(=O)NCc1ccc(-c2nn(C3CCCC(O)C3)c(N)c2C(N)=O)cc1` (single isomer, unassigned) [Example 3, 5-amino-3-(4-((5-fluoro-2-methoxybenzamido)methyl)phenyl)-1-(3-hydroxycyclohexyl)-1H-pyrazole-4-carboxamide] the IC50 [1] was 100 to 500 nM and the IC50 [2] was 100 to 500 nM.
For `COc1ccc(F)cc1C(=O)NCc1ccc(-c2nn(C3CCCC(O)C3)c(N)c2C(N)=O)cc1` (centres unmarked) [Example 1, 5-amino-3-(4-((5-fluoro-2-methoxybenzoylamino)methyl)phenyl)-1-(3-hydroxycyclohexyl)-1H-pyrazole-4-carboxamide], the IC50 [1] was 100 to 500 nM and the IC50 [2] was 100 to 500 nM.
For `COc1ccc(F)cc1C(=O)NCc1ccc(-c2nn(C3CCCC(C)(O)C3)c3ncnc(N)c23)cc1` (single isomer, unassigned) [Example 24, N-(4-(4-amino-1-(3-hydroxy-3-methylcyclohexanyl)-1H-pyrazolo[3,4-d]pyrimidin-3-yl)benzyl)-5-fluoro-2-methoxybenzamide], the IC50 [1] was ≤ 25 nM and the IC50 [2] was 25 to 50 nM.
Work on `COc1ccc(F)cc1C(=O)NCc1ccc(-c2nn(C3CCC(CO)OC3)c3c(=O)[nH]nc(N)c23)cc1` (single isomer, unassigned) [Example 47, N-(4-(4-amino-1-(6-(hydroxymethyl)tetrahydro-2H-pyran-3-yl)-7-oxo-6,7-dihydro-1H-pyrazolo[3,4-d]pyridazin-3-yl)benzyl)-5-fluoro-2-methoxybenzamide] yielded an IC50 [1] of 100 to 500 nM and an IC50 [2] of 100 to 500 nM.
`COc1ccc(F)cc1C(=O)NCc1ccc(-c2nn(C3CCCC(C)(O)C3)c3ncnc(N)c23)cc1` (single isomer, unassigned) [Example 28, N-(4-(4-amino-1-(3-hydroxy-3-methylcyclohexanyl)-1H-pyrazolo[3,4-d]pyrimidin-3-yl)benzyl)-5-fluoro-2-methoxybenzamide] was tested, and the IC50 [1] was ≤ 25 nM and the IC50 [2] was 25 to 50 nM.
With `COc1ccc(F)cc1C(=O)NCc1ccc(-c2nn([C@@H]3C=C[C@@H](O)C3)c3ncnc(N)c23)cc1` (single isomer, unassigned) [Example 49, trans-N-(4-(4-amino-1-(4-hydroxycyclopent-2-en-1-yl)-1H-pyrazolo[3,4-d]pyrimidin-3-yl)benzyl)-5-fluoro-2-methoxybenzamide] the IC50 [1] was ≤ 25 nM and the IC50 [2] was 25 to 50 nM.
Work on `COc1ccc(F)cc1C(=O)NCc1ccc(-c2nn(C3CCC(O)C3)c3c(=O)[nH]nc(N)c23)cc1` (centres unmarked) [Example 41, N-(4-(4-amino-1-(3-hydroxycyclopentanyl)-7-oxo-6,7-dihydro-1H-pyrazolo[3,4-d]pyridazin-3-yl)benzyl)-5-fluoro-2-methoxybenzamide] yielded an IC50 [1] of 25 to 50 nM and an IC50 [2] of 50 to 100 nM.
`COc1ccc(F)cc1C(=O)NCc1ccc(-c2nn(C3CCCC(O)C3)c(N)c2C(N)=O)cc1` (single isomer, unassigned) [Example 2, 5-amino-3-(4-((5-fluoro-2-methoxybenzoylamino)methyl)phenyl)-1-(3-hydroxycyclohexyl)-1H-pyrazole-4-carboxamide] was tested, and the IC50 [1] was 50 to 100 nM and the IC50 [2] was 50 to 100 nM.
Work on `COc1ccc(F)cc1C(=O)NCc1ccc(-c2nn(C3CCCCC(O)C3)c3ncnc(N)c23)cc1` (centres unmarked) [Example 57, N-(4-(4-amino-1-(3-hydroxycycloheptyl)-1H-pyrazolo[3,4-d]pyrimidin-3-yl)benzyl)-5-fluoro-2-methoxybenzamide] yielded an IC50 [1] of 25 to 50 nM and an IC50 [2] of 50 to 100 nM.
`COc1ccc(F)cc1C(=O)NCc1ccc(-c2nn(C3CCC(O)C3)c3c(=O)[nH]nc(N)c23)cc1` (centres unmarked) [Example 42, N-(4-(4-amino-1-(3-hydroxycyclopentanyl)-7-oxo-6,7-dihydro-1H-pyrazolo[3,4-d]pyridazin-3-yl)benzyl)-5-fluoro-2-methoxybenzamide] showed an IC50 [1] of 50 to 100 nM and an IC50 [2] of 50 to 100 nM.
